Test results reported in US11267843B2, “Stereodefining L-monomers” (Roche Innovation Center Copenhagen A/S, priority 2016, dated 2022).

Tests used:
[1] = Stability determination of amidite in solvent after 24 hours (HPLC-MS, UV 254 nm); assay type: physicochemical; settings: for Stability at 24 hours: room temperature, grades 1-3, key not given
Protocol: (§1) To a 1.5 mL vial was added 0.013 mmol of amidite after which the solid material was dissolved in 0.13 mL of solvent. Hereafter, the vial was capped, vortexed, and finally left at room temperature for 24 hours. Then, the dissolved material was visually examined regarding the solubility (FIG. 1). If the solution appeared cloudy or otherwise non-homogenous the solubility was set to “no”.
Stability Determination Method: To complete the analysis the stability of the amidite was investigated using an Agilent 1100 series HPLC-MS with from the following specifications:
Column: Waters XTerra, MS C-18, 5 μm, 2.1×100 mm
Eluent: A: 0.1% sat. NH4OH (aq) in H2O B: 20% A in CH3CN
The mass and UV peak of the mother compound was identified at 0 hours and at 24 hours. Hereafter, the relative stability compared to other by-products was reported by integrating the UV chromatogram (254 nm) and normalizing the area to the chromatogram recorded at 0 hours (FIG. 2).

[2] = Solubility of amidite in solvent, visual examination; assay type: physicochemical
Protocol: To investigate the stability and solubility of L-LNA G-DMF and L-LNA G-i-Bu the following experimental procedure was followed:
as §1

| SMILES | Stability at 24 hours ([1]; solvent DMF) | Stability at 24 hours ([1]; solvent DMSO) | Stability at 24 hours ([1]; solvent Dioxane) | Stability at 24 hours ([1]; solvent MeCN:Acetone (1:1)) | Stability at 24 hours ([1]; solvent MeCN:DCE (1:1)) | Stability at 24 hours ([1]; solvent MeCN:DCM (1:1)) | Stability at 24 hours ([1]; solvent MeCN:Toluene (1:1)) | Stability at 24 hours ([1]; solvent MeCN) | Stability at 24 hours ([1]; solvent THE) | Stability at 24 hours ([1]; solvent Toluene) | Stability at 24 hours ([1]; solvent DCE) | Stability at 24 hours ([1]; solvent DCM) | Stability at 24 hours ([1]; solvent NMP) | solubility in most solvents (side by side comparison) ([2]; most solvents) | stability in most solvents (side by side comparison) ([1]; most solvents) | solubility in all solvents investigated ([2]; all solvents investigated (12 different)) | improvement in stability ([1]; all solvents investigated) |
| --- | --- | --- | --- | --- | --- | --- | --- | --- | --- | --- | --- | --- | --- | --- | --- | --- | --- |
| COc1ccc(C(OCC2OC(n3cnc4c(=O)[nH]c(N=CN(C)C)nc43)CC2OP2OC(c3ccccc3)C3CCCN32)(c2ccccc2)c2ccc(OC)cc2)cc1 [D-DNA G-DMF] | 3 | 3 | 2 | 3 | 3 | 3 | 3 | 3 | 3 | 3 | – | – | – | – | – | – | – |
| COc1ccc(C(OCC2OC(n3cc(C)c(=O)[nH]c3=O)CC2OP2OC(c3ccccc3)C3CCCN32)(c2ccccc2)c2ccc(OC)cc2)cc1 [D-DNA T-DMF] | 3 | 3 | 1 | 2 | 3 | 3 | 3 | 3 | 1 | 3 | 1 | 1 | 3 | – | – | – | – |
| COc1ccc(C(OCC23COC(C(n4cnc5c(=O)[nH]c(N=CN(C)C)nc54)O2)C3OP2OC(c3ccccc3)C3CCCN32)(c2ccccc2)c2ccc(OC)cc2)cc1 [D-LNA G-DMF] | 1 | 1 | 1 | 2 | 1 | 1 | 3 | 1 | 2 | 3 | 1 | 1 | 3 | soluble | stable | – | – |
| COc1ccc(C(OCC23COC(C(n4cc(C)c(=O)[nH]c4=O)O2)C3OP2OC(c3ccccc3)C3CCCN32)(c2ccccc2)c2ccc(OC)cc2)cc1 [D-LNA T-DMF] | 2 | 3 | 2 | 2 | 1 | 1 | 3 | 1 | 1 | 3 | 1 | 1 | 3 | – | – | – | – |
| COc1ccc(C(OCC2OC(n3cnc4c(=O)[nH]c(N=CN(C)C)nc43)CC2OP2OC(c3ccccc3)C3CCCN32)(c2ccccc2)c2ccc(OC)cc2)cc1 [L-DNA G-DMF] | 3 | 3 | 2 | 3 | 3 | 3 | 3 | 2 | 3 | 3 | – | – | – | – | – | – | – |
| COc1ccc(C(OCC2OC(n3cc(C)c(=O)[nH]c3=O)CC2OP2OC(c3ccccc3)C3CCCN32)(c2ccccc2)c2ccc(OC)cc2)cc1 [L-DNA T-DMF] | 3 | 3 | 1 | 3 | 3 | 3 | 3 | 3 | 2 | 3 | 1 | 1 | 3 | – | – | – | – |
| COc1ccc(C(OC[C@@]23CO[C@@H]([C@H](n4cnc5c(=O)[nH]c(NC(=O)C(C)C)nc54)O2)[C@@H]3O[P@]2O[C@H](c3ccccc3)[C@@H]3CCCN32)(c2ccccc2)c2ccc(OC)cc2)cc1 [L-LNA G-iBu, N-(9-((1R,3R,4R,7S)-1-((bis(4-methoxyphenyl)(phenyl)methoxy)methyl)-7-(((1R,3R,3aS)-3-phenyltetrahydro-1H,3H-pyrrolo[1,2-c][1,3,2]oxazaphosphol-1-yl)oxy)-2,5-dioxabicyclo[2.2.1]heptan-3-yl)-6-oxo-6,9-dihydro-1H-purin-2-yl)isobutyramide] | 3 | 3 | 1 | 2 | 2 | 2 | 3 | 2 | 2 | 3 | 2 | 2 | – | – | – | soluble | significant improvement |
| COc1ccc(C(OCC23COC(C(n4cc(C)c(=O)[nH]c4=O)O2)C3OP2OC(c3ccccc3)C3CCCN32)(c2ccccc2)c2ccc(OC)cc2)cc1 [L-LNA T-DMF] | 1 | 2 | 1 | 2 | 1 | 1 | 3 | 1 | 1 | 3 | 1 | 1 | 2 | – | – | – | – |
